Measurements taken from patent publication US20240262845A1, “PYRIDINIUM SALTS, METHODS OF MAKING, AND METHODS OF USE” (UNIVERSITY OF WYOMING, priority 2023, published 2024).
Entries after “also recorded” stand apart in the source; their conditions may differ. Counter-ions that a name gives are not always drawn.

Assays:
[1] = target: T1, recombinant NPM1 C-terminal domain (residues 240-294) (Homo sapiens, UniProt P06748); experiment: In vitro NPM1 C-terminal domain labeling (Western blot); format: biochemical; details: 10 μM NPM1, 100 μM probe, 100 μM glutathione, HEPES pH 7.5, about 440 nm, 15 min
T1 construct: 6×His (N, cleaved yes); made in house; host or cells: NiCo21(DE3) E. coli
Method: In vitro NPM1 C-terminal domain labeling and characterization: Labeling of recombinant NPM1 with the pyridinium salt 2b was performed with the following conditions: 10 μM NPM1 was treated with DMSO or 100 μM pyridinium salt 2b (2% DMSO) in 50 mM HEPES pH 7.5, 150 mM NaCl, 1.5 mM MgCl2, and 100 μM glutathione (GSH). Samples were irradiated at 450 nm (Kessil PR160L-440) at 100% intensity for 15 minutes at room temperature or 50° C. The reaction mixture was quenched with the addition of 4X LDS buffer (Invitrogen) containing 10 mM DTT (Pierce) and boiled for 10 minutes before resolving proteins on 4-12% Bis-Tris NuPAGE gels (Invitrogen), transferred onto a Trans-Blot Turbo Mini 0.2 μm nitrocellulose membrane (BioRad), blocked with 5% BSA in tris-buffered saline with Tween-20 (TBST), and incubated with HRP-linked anti-biotin (Cell Signaling Technology, #7075).

chymotrypsinogen = target: T2, chymotrypsinogen (Bos taurus, UniProt P00766); experiment: Photochemical labeling of chymotrypsinogen with pyridinium salt (General Procedure B, LC/MS); format: biochemical, bovine; details: trypsin digest
T2 construct: α-Chymotrypsinogen A from bovine pancreas; purchased Sigma Aldrich; host or cells: bovine pancreas
Method: General Procedure B: Photochemical Irradiation of Peptides and Proteins: To a 2 mL Pyrex LC/MS vial (Thermo model #03-391-39) were sequentially added solutions containing the desired biomolecule, glutathione (GSH), pyridinium salt, and ammonium acetate (NH4OAc). The resulting solution was diluted to a final volume of 500 μL and then sparged using nitrogen for a minimum of 30 minutes prior to irradiation. The actively sparging solution was then placed in an EvoluChem™ PhotoRedOx Box photoreactor that was equipped with a Kessil, PR160 427 nm LED Lamp and was then irradiated (100% lamp intensity) for the designated time at room temperature while maintaining active sparging. The resultant reaction mixture was then analyzed directly by LC/MS. Analysis of labeling outcomes using LC/MS was performed either by extracted ion chromatogram intensities (method A) or by integrating the area under the peaks associated with peptide content (method B). These values were totaled, and estimated percentages were assigned according to relative intensities of peaks or ion counts.
Labeling of Chymotrypsinogen with pyridinium salt 2a (Chymotrypsinogen-2a Conjugate). […] The reaction mixture was directly analyzed by LC/MS using method A and was estimated to have proceeded with 90% conversion with a 20.7:8.3:1 mono:di:tri labeled ratio and 4% glutathionylation of all unlabeled and labeled protein content. […]

T1 sequence (P06748 240-294): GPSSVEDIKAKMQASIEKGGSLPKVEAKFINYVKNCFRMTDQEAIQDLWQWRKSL

Western analysis of construct labeling [1]	SMILES	Modified Trp (chymotrypsinogen)
photo-dependent labeling	COc1ccc2cc(-c3cc(C)[n+](N(C)C(=O)OCCCCC[C@H]4SC[C@H]5NC(=O)N[C@H]54)c(C)c3)ccc2c1 (stereo in doubt) [pyridinium salt 2b, 4-(6-methoxynaphthalen-2-yl)-2,6-dimethyl-1-(methyl(((5-((3aR,4R,6aS)-2-oxohexahydro-1H-thieno[3,4-d]imidazol-4-yl)pentyl)oxy)carbonyl)amino)pyridin-1-ium tetrafluoroborate]	–
–	COC(=O)N(C)[n+]1c(C)cc(-c2ccc3cc(OC)ccc3c2)cc1C [pyridinium salt 2a, 1-((methoxycarbonyl)(methyl)amino)-4-(6-methoxynapthalen-2-yl)-2,6-dimethylpyridin-1-ium tetrafluoroborate]	Trp-215; also recorded: Trp-237
